Results from US8790708B2, “Coated tablet formulations and uses thereof” (Wyeth LLC, priority 2009, dated 2014).
Counter-ions that a name gives are not always drawn.

Assay: Surface free energy (work of cohesion) of particles
Assay type: physicochemical
Text: This property renders the primary particles very cohesive and prone to aggregation as described by B. Janczuk and T. Bialopiotrowicz, “Surface Free-Energy Components of Liquids and Low Energy Solids and Contact Angles,” in J. Colloid Interf. Sci. 127 (1989), p. 189-204; W. R. Good, “A Comparison of Contact Angle Interpretations,” in J. Colloid Interf. Sci. 44 (1973), p. 63; M. D. Lechner (Ed.), Landolt Börnstein, New Series, Vol. IV/16, “Surface Tension of Pure Liquids and Binary Liquid Mixture,” Springer Verlag, 1998; and J. J. Jasper, “The Surface Tension of Pure Liquid Compounds,” in J. Phys. Chem. Ref. Data, Vol. 1, No. 4, 1972, p. 859. […] Due to these limitations, it was not possible to develop a neratinib maleate formulation comprising a capsule or tablet of higher strength employing a direct compression or roller compaction processes successfully. A formulation using a conventional wet granulation method led to chemical degradation and stability issues.

CCOc1cc2ncc(C#N)c(Nc3ccc(OCc4ccccn4)c(Cl)c3)c2cc1NC(=O)/C=C/CN(C)C [Neratinib maleate, (E)-N-(4-(3-chloro-4-(pyridin-2-ylmethoxy)phenylamino)-3-cyano-7-ethoxyquinolin-6-yl)-4-(dimethylamino)but-2-enamide]
work of cohesion (surface free energy): 45.62 mN/m
